Here are results for eleven compounds from patent US20260337208A1, “HETEROCYCLIC DERIVATIVES AS JANUS KINASE INHIBITORS” (CHIESI FARMACEUTICI S.P.A., priority 2022, published 2026).

Bounds are passed on as bounds.

Experiment [1] addresses JAK1 (Homo sapiens, UniProt P23458). The experiment in a line: Biochemical potency on JAK1, TR-FRET (LANCE Ultra kinase assay). The note with it: ATP corresponding to Km; cell-free; read-out: JAK1 inhibitory activity (pIC50) (converted). A digest of the protocol:
(§1)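 ULight-JAK-1 (Tyr1023) peptide phosphorylation at Km ATP, 1.5 h r.t.; substrate solution held peptide 30/50/20/10 nM and ATP 20/0.7/0.2/12 μM, enzyme solution 0.15/0.083/0.025/0.144 ng/μL (JAK1/JAK2/JAK3/TYK2). EDTA stop, Eu-PT66 antibody TR-FRET read at 665 nm; 11-point 5-fold dilutions from 20 μM; IC50 by variable-slope fit.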
On the technique in general: Time-resolved FRET reads energy transfer from a long-lived donor to a nearby acceptor.

The test system of experiment [2] is pSTAT6 in BEAS-2B human cell line. The experiment in a line: Inhibition of IL-13 induced pSTAT6 in BEAS. It is filed as cell-based. The note with it: for IC50: Homo sapiens, BEAS-2B, 0.5 h, IL-13 trigger, 30 min, parent compound; for Fold difference parent vs predicted acid metabolite: ratio=IC50 predicted acid metabolite/IC50 ester. Summed up:
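BEAS-2B cells grown 48 h, pre-treated 30 min with compound, then stimulated 30 min with IL-13. Lysate pSTAT6 (Tyr641) measured by sandwich ELISA. Eleven 5-fold dilutions from 10 μM, in duplicate, fitted to IC50.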

Experiment [3] has as its target T1, JAK3 (Homo sapiens, UniProt P52333).
T1 sequence (P52333 1-1124): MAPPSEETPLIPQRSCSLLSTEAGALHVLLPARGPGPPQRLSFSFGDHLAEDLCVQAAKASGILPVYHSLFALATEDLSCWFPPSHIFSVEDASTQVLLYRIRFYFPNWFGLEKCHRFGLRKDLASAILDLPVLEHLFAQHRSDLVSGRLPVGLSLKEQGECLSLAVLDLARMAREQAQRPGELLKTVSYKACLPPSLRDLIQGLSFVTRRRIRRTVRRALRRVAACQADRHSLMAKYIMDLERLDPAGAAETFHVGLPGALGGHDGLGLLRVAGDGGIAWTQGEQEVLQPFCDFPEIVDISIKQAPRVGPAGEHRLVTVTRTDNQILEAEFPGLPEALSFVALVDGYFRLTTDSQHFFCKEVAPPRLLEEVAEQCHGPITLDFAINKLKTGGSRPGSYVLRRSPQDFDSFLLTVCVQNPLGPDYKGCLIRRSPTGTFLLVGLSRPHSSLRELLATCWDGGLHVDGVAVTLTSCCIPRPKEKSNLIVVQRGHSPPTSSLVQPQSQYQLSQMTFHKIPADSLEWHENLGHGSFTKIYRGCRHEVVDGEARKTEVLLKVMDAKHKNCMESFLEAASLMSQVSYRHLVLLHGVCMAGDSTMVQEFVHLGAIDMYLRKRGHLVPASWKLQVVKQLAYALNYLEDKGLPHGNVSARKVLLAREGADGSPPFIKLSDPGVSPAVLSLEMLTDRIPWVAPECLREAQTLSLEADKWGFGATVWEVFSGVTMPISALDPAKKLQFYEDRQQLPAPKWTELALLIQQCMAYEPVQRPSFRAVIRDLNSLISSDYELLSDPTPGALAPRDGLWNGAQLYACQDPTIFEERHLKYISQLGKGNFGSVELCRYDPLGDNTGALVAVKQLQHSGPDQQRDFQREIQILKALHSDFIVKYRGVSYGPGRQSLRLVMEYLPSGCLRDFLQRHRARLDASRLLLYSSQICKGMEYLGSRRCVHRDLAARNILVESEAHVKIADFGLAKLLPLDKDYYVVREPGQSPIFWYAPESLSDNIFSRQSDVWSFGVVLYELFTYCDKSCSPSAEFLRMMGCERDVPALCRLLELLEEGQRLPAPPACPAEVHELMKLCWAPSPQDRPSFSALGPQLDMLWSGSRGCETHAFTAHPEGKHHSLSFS
The experiment in a line: Biochemical potency on JAK3, TR-FRET (LANCE Ultra kinase assay). The note with it: ATP corresponding to Km; cell-free; read-out: JAK3 inhibitory activity (pIC50) (converted). Summed up: as §1

Experiment [4] deals with JAK2 (Homo sapiens, UniProt O60674). The experiment in a line: Biochemical potency on JAK2, TR-FRET (LANCE Ultra kinase assay). As to conditions: ATP corresponding to Km; cell-free; read-out: JAK2 inhibitory activity (pIC50) (converted). A digest of the protocol: as §1
Chain of JAK2 (O60674 whole entry): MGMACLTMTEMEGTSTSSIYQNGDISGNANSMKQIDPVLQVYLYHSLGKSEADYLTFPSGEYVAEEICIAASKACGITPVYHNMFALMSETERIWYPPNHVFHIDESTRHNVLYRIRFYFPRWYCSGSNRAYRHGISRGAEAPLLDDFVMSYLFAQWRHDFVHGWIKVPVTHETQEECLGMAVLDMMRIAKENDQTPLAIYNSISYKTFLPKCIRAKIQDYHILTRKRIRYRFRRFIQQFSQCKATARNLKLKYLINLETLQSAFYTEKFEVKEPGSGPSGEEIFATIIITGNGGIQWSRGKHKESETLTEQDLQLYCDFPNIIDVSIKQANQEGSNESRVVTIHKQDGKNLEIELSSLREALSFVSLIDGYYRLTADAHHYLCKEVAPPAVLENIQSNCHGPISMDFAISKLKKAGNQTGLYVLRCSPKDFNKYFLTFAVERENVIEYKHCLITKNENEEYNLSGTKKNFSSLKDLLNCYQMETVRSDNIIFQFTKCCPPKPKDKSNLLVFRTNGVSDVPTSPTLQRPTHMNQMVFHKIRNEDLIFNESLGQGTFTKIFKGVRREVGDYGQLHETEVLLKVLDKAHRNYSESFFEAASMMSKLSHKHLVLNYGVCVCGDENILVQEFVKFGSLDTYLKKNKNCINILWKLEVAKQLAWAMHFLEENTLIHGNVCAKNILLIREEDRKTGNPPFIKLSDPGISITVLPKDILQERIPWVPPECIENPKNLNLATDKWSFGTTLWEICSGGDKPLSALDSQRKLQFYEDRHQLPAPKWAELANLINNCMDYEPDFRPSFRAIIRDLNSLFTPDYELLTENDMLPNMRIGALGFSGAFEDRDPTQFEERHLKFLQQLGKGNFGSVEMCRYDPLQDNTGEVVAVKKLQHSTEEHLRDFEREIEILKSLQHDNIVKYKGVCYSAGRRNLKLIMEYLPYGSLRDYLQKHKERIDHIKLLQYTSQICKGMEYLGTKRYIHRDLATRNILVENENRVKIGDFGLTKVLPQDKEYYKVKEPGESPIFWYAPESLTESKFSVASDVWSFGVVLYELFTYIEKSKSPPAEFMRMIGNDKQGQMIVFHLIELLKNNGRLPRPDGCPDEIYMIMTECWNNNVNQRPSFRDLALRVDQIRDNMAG
Experiment [5] deals with TYK2 (Homo sapiens, UniProt P29597). Kind of experiment: Biochemical potency on Tyk2, TR-FRET (LANCE Ultra kinase assay). The note with it: ATP corresponding to Km; cell-free; read-out: TYK2 inhibitory activity (pIC50) (converted). A digest of the protocol: as §1
Chain of TYK2 (P29597 whole entry): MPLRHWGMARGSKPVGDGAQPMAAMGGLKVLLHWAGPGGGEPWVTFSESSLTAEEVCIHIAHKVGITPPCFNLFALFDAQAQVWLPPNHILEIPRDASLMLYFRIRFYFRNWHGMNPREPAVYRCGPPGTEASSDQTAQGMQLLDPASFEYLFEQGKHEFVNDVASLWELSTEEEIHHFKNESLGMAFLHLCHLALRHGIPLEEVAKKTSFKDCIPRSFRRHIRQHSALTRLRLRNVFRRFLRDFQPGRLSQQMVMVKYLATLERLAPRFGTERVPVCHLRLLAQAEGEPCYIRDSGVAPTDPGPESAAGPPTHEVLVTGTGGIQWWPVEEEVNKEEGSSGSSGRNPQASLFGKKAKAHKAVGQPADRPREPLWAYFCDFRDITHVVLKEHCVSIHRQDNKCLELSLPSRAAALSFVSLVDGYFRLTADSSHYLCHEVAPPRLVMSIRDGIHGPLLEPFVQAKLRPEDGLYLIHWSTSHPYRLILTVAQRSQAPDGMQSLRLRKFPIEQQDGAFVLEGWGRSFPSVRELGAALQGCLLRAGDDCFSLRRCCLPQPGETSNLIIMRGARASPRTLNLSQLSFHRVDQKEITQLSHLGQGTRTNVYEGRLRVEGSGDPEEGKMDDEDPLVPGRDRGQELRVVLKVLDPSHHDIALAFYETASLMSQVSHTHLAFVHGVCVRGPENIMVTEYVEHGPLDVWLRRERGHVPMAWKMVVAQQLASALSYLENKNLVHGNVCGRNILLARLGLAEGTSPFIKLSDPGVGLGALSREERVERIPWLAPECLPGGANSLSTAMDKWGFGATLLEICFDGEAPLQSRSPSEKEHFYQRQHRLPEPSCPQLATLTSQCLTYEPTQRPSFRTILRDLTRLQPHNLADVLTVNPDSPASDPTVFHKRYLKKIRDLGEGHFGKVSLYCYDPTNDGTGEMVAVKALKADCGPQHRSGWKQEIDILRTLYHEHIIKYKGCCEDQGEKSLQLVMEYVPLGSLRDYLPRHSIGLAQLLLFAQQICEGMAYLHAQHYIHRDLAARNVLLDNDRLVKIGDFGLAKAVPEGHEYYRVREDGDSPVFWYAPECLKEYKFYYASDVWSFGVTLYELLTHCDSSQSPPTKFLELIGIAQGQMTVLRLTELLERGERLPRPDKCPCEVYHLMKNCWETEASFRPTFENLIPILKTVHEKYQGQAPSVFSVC

Chain of JAK1 (P23458 whole entry): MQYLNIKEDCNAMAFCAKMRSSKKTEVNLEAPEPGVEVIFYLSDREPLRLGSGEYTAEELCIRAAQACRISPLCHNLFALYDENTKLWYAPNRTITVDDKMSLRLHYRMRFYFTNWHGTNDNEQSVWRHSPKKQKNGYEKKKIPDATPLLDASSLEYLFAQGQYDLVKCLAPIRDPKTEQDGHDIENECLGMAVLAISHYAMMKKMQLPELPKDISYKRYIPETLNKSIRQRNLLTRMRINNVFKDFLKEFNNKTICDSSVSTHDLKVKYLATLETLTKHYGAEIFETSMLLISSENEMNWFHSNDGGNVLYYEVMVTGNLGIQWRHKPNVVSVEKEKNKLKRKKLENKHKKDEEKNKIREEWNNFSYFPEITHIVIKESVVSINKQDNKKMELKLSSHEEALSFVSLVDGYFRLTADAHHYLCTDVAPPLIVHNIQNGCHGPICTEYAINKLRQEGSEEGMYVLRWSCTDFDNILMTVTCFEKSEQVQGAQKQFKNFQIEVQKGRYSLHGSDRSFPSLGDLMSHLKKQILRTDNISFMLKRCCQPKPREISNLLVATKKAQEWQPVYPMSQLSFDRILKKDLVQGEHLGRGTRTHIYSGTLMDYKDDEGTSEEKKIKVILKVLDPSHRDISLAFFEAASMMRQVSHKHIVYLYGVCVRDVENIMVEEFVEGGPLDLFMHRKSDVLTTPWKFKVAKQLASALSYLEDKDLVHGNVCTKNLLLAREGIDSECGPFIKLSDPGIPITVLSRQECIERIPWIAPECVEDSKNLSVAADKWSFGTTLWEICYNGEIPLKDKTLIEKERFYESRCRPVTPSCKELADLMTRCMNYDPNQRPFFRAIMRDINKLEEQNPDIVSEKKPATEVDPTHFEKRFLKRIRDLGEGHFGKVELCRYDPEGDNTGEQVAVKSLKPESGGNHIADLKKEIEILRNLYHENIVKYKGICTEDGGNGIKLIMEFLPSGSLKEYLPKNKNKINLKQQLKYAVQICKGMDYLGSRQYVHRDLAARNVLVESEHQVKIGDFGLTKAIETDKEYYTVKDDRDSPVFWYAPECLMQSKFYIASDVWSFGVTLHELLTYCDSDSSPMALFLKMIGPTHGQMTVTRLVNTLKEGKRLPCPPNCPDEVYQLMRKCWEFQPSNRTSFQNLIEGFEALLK

On to `COc1cc2c(cc1-n1nc(C(=O)NCCN3CC[C@@H](C(=O)O[C@@H]4CCN(CCF)C4)C3)c3cnc(-c4cnn5cccnc45)cc31)OCCN2` [Example 55, (R)-1-(2-fluoroethyl)pyrrolidin-3-yl (R)-1-(2-(1-(6-methoxy-3,4-dihydro-2H-benzo[b][1,4]oxazin-7-yl)-6-(pyrazolo[1,5-a]pyrimidin-3-yl)-1H-pyrazolo[4,3-c]pyridine-3-carboxamido)ethyl)pyrrolidine-3-carboxylate], for which the IC50 is ≤ 5.01 nM in experiment [1]; 5.01 to 50.1 nM in experiment [2]; ≤ 5.01 nM in experiment [3]; ≤ 5.01 nM in experiment [4]; 5.01 to 50.1 nM in experiment [5]. The “Fold difference parent vs predicted acid metabolite” value in experiment [2] is “kk (100>ratio≥10)”.
As for `CCOC(=O)C1CN(CCNC(=O)c2nn(-c3cc4c(cc3OC)NCCO4)c3cc(-c4cnn5cccnc45)ncc23)CCN1C` (centres unmarked) [Example 36, ethyl 4-(2-(1-(6-methoxy-3,4-dihydro-2H-benzo[b][1,4]oxazin-7-yl)-6-(pyrazolo[1,5-a]pyrimidin-3-yl)-1H-pyrazolo[4,3-c]pyridine-3-carboxamido)ethyl)-1-methylpiperazine-2-carboxylate], the IC50 in experiment [1] is ≤ 5.01 nM; in experiment [2], 5.01 to 50.1 nM; in experiment [3], ≤ 5.01 nM; in experiment [4], 5.01 to 50.1 nM; in experiment [5], 5.01 to 50.1 nM.
With `COc1cc2c(cc1-n1nc(C(=O)NCCN3CCC(C(=O)OC(C)C)CC3)c3cnc(-c4cnn5cccnc45)cc31)OCCN2` [Example 45, isopropyl 1-(2-(1-(6-methoxy-3,4-dihydro-2H-benzo[b][1,4]oxazin-7-yl)-6-(pyrazolo[1,5-a]pyrimidin-3-yl)-1H-pyrazolo[4,3-c]pyridine-3-carboxamido)ethyl)piperidine-4-carboxylate], the IC50 is ≤ 5.01 nM in experiment [1]; ≤ 5.01 nM in experiment [2]; ≤ 5.01 nM in experiment [3]; ≤ 5.01 nM in experiment [4]; 5.01 to 50.1 nM in experiment [5]. Also, in experiment [2], the “Fold difference parent vs predicted acid metabolite” value is on record as “kkkk (ratio≥200)”.
As to `CCOC(=O)[C@H]1C[C@@H](OC(=O)Nc2nn(-c3cc4c(cc3OC)NCCO4)c3cc(-c4cnn5cccnc45)ncc23)C1` [Example 40, ethyl (1s,3s)-3-(((1-(6-methoxy-3,4-dihydro-2H-benzo[b][1,4]oxazin-7-yl)-6-(pyrazolo[1,5-a]pyrimidin-3-yl)-1H-pyrazolo[4,3-c]pyridin-3-yl)carbamoyl)oxy)cyclobutane-1-carboxylate], the IC50 is ≤ 5.01 nM in experiment [1]; 5.01 to 50.1 nM in experiment [2]; ≤ 5.01 nM in experiment [3]; ≤ 5.01 nM in experiment [4]; 5.01 to 50.1 nM in experiment [5]. Moreover, the “Fold difference parent vs predicted acid metabolite” value in experiment [2] is “kk (100>ratio≥10)”.
In the case of `CCOC(=O)C1(F)CCN(CCNC(=O)c2nn(-c3cc4c(cc3OC)NCCO4)c3cc(-c4cnn5cccnc45)ncc23)CC1` [Example 28, ethyl 4-fluoro-1-(2-(1-(6-methoxy-3,4-dihydro-2H-benzo[b][1,4]oxazin-7-yl)-6-(pyrazolo[1,5-a]pyrimidin-3-yl)-1H-pyrazolo[4,3-c]pyridine-3-carboxamido)ethyl)piperidine-4-carboxylate], the IC50 in experiment [1] was ≤ 5.01 nM; in experiment [2], 5.01 to 50.1 nM; in experiment [3] it was ≤ 5.01 nM; in experiment [4], ≤ 5.01 nM; in experiment [5], 5.01 to 50.1 nM.
Consider `CCOC(=O)[C@H]1C[C@@H](OC(=O)Nc2nn(-c3cc4c(cc3OC)NCCS4)c3cc(-c4cnn5cccnc45)ncc23)C1` [Example 2, ethyl (1s,3s)-3-(((1-(6-methoxy-3,4-dihydro-2H-benzo[b][1,4]thiazin-7-yl)-6-(pyrazolo[1,5-a]pyrimidin-3-yl)-1H-pyrazolo[4,3-c]pyridin-3-yl)carbamoyl)oxy)cyclobutane-1-carboxylate], for which the IC50 in experiment [1] was ≤ 5.01 nM; in experiment [2], 5.01 to 50.1 nM; in experiment [3], ≤ 5.01 nM; in experiment [4] it was ≤ 5.01 nM; in experiment [5], 5.01 to 50.1 nM.
In the case of `COc1cc2c(cc1-n1nc(C(=O)NCCN3CC[C@@H](C(=O)OCC(C)(C)C#N)C3)c3cnc(-c4cnn5cccnc45)cc31)OCCN2` [Example 49, 2-cyano-2-methylpropyl (R)-1-(2-(1-(6-methoxy-3,4-dihydro-2H-benzo[b][1,4]oxazin-7-yl)-6-(pyrazolo[1,5-a]pyrimidin-3-yl)-1H-pyrazolo[4,3-c]pyridine-3-carboxamido)ethyl)pyrrolidine-3-carboxylate], the IC50 in experiment [1] was ≤ 5.01 nM; in experiment [2] it was ≤ 5.01 nM; in experiment [3] it was ≤ 5.01 nM; in experiment [4], ≤ 5.01 nM; in experiment [5], 5.01 to 50.1 nM. The “Fold difference parent vs predicted acid metabolite” value in experiment [2] was “kkk (200>ratio≥100)”.
With `COc1cc2c(cc1-n1nc(C(=O)NCCN3CCC(C(=O)OC4CCCC4)CC3)c3cnc(-c4cnn5cccnc45)cc31)OCCN2` [Example 12, cyclopentyl 1-(2-(1-(6-methoxy-3,4-dihydro-2H-benzo[b][1,4]oxazin-7-yl)-6-(pyrazolo[1,5-a]pyrimidin-3-yl)-1H-pyrazolo[4,3-c]pyridine-3-carboxamido)ethyl)piperidine-4-carboxylate], the IC50 in experiment [1] is ≤ 5.01 nM; in experiment [2], ≤ 5.01 nM; in experiment [3], ≤ 5.01 nM; in experiment [4], ≤ 5.01 nM; in experiment [5], 5.01 to 50.1 nM. Further, the “Fold difference parent vs predicted acid metabolite” value in experiment [2] was “kkkk (ratio≥200)”.
For `COC(=O)[C@@H]1CCN(CCNC(=O)c2nn(-c3cc4c(cc3OC)NCCO4)c3cc(-c4cnn5cccnc45)ncc23)C1` [Example 29, methyl (R)-1-(2-(1-(6-methoxy-3,4-dihydro-2H-benzo[b][1,4]oxazin-7-yl)-6-(pyrazolo[1,5-a]pyrimidin-3-yl)-1H-pyrazolo[4,3-c]pyridine-3-carboxamido)ethyl)pyrrolidine-3-carboxylate], the IC50 is ≤ 5.01 nM in experiment [1]; ≤ 5.01 nM in experiment [2]; ≤ 5.01 nM in experiment [3]; ≤ 5.01 nM in experiment [4]; 5.01 to 50.1 nM in experiment [5]. In addition, in experiment [2], the “Fold difference parent vs predicted acid metabolite” value was “kkk (200>ratio≥100)”.
As for `CCOC(=O)COC(=O)Nc1nn(-c2cc3c(cc2OC)NCCS3)c2cc(-c3cnn4cccnc34)ncc12` [Example 3, ethyl 2-(((1-(6-methoxy-3,4-dihydro-2H-benzo[b][1,4]thiazin-7-yl)-6-(pyrazolo[1,5-a]pyrimidin-3-yl)-1H-pyrazolo[4,3-c]pyridin-3-yl)carbamoyl)oxy)acetate], the IC50 in experiment [1] was ≤ 5.01 nM; in experiment [2], ≤ 5.01 nM; in experiment [3] it was ≤ 5.01 nM; in experiment [4], ≤ 5.01 nM; in experiment [5] it was 5.01 to 50.1 nM. In addition, the “Fold difference parent vs predicted acid metabolite” value in experiment [2] is listed as “kkkk (ratio≥200)”.
With `COC(=O)Cc1cccc(CN(C)CCNC(=O)c2nn(-c3cc4c(cc3OC)NCCO4)c3cc(-c4cnn5cccnc45)ncc23)c1` [Example 37, methyl 2-(3-(((2-(1-(6-methoxy-3,4-dihydro-2H-benzo[b][1,4]oxazin-7-yl)-6-(pyrazolo[1,5-a]pyrimidin-3-yl)-1H-pyrazolo[4,3-c]pyridine-3-carboxamido)ethyl)(methyl)amino)methyl)phenyl)acetate], the IC50 in experiment [1] was 5.01 to 50.1 nM; in experiment [2], 5.01 to 50.1 nM; in experiment [3], ≤ 5.01 nM; in experiment [4], ≤ 5.01 nM; in experiment [5], 5.01 to 50.1 nM.
